Data: US12343347B2 (Biohaven Pharmaceutical Holding Company Ltd., priority 2012, dated 2025)

Columns and labels:
Type in all cases: in vitro ADME
[1] = Stability in Simulated Intestinal Fluid (SIF); conditions: SIF:acetonitrile 9:1, 0.01 mg/mL, 37° C.
Method: (§1) Stability in Simulated Gastric Fluid (SGF) and Simulated Intestinal Fluid (SIF). Procedure from Baudy et. al. (J. Med. Chem. 2009, 52, 771-778) used. The physiological stability of pro-drugs was determined by examining the stability of the compound in SGF, and SIF at 37° C. The compounds were prepared in a 9:1 mixture of the appropriate test component (SGF, SIF) and acetonitrile to a final concentration of 0.01 mg/mL. The samples were thoroughly mixed and maintained at 37° C. Each sample was injected consecutively onto an Agilent 1100 system (Luna C18, 3 μm, 50 mm×3 mm; 1 mL/min; mobile phase of 0.1% trifluoroacetic acid in water/0.1% trifluoroacetic acid in acetonitrile) after a 3 h period. The percent remaining of pro-drug was calculated by comparing the area of pro-drug compound versus riluzole generated. The identities of the parent compounds and conversion products were confirmed by LC/MS.

[2] = Stability in Simulated Gastric Fluid (SGF); conditions: SGF:acetonitrile 9:1, 0.01 mg/mL, 37° C.
Method: as §1

[3] = Metabolic stability in pooled mouse liver microsomes; conditions: mouse liver microsomes 0.5 mg/mL, 1 uM, NADPH, 37° C.
Method: (§2) Metabolic Stability: In vitro metabolic stability was determined in pooled mouse or human liver microsomes (BD Gentest) at a protein concentration of 0.5 mg/mL in reaction buffer (100 mM KH2PO4, pH 7.4 and 12 mM MgCl2). Each drug candidate was added to a final concentration of 1 uM. This mixture was pre-warmed to 37° C. for 10 minutes prior to starting the reaction with the addition of β-Nicotinamide adenine dinucleotide 2′-phosphate reduced (NADPH) to a final concentration of 1 mM. A parallel incubation lacking NADPH served as the control. After incubation for 30 min at 37° C., the reactions were quenched by the addition of acetonitrile containing 0.1% formic acid and internal standard, vortex mixed for 2 minutes and centrifuged at 4000 rpm for 10 minutes to pellet the precipitated protein. The resulting supernatant containing the drug candidate and its potential metabolites was diluted 5-fold with water containing 0.1% formic acid and submitted to LC-MS/MS analysis. […]
(§3) LC-MS/MS Analysis: An aliquot from each incubation was analyzed by LC-MS/MS with SRM detection in the positive ionization mode using an ABSciex API 5500 QTrap Mass Spectrometer interfaced via the ABSciex Turbo V IonSpray source (ESI) to an Eksigent ExpressHT LC system. […] A fast gradient, from 15 to 85% organic in 2.5 minutes, with run time of 5.0 minutes, and flow rate of 50 uL/min was utilized. Peak areas were integrated using MultiQuant v2.0 software from ABSciex.

[4] = Plasma stability in fresh human plasma; conditions: 1 uM, 37° C.
Method: (§4) Plasma Stability: Assessment of plasma stability was carried out by individual incubations of drug candidates in fresh mouse or human control plasma at a concentration of 1 uM for 1 hour at 37° C. After which, the samples were de-proteinized by addition of 2 volumes of acetonitrile containing 0.1% formic acid and internal standard, vortex mixed for 2 minutes and centrifuged at 4000 rpm for 10 minutes to pellet precipitated protein. The resulting supernatant containing the drug candidates was diluted 5-fold with water containing 0.1% formic acid and submitted to LC-MS/MS analysis. All determinations were done in triplicate. […]
as §3

[5] = Plasma stability in fresh mouse plasma; conditions: 1 uM, 37° C.
Method: as §4, §3

[6] = Metabolic stability in pooled human liver microsomes; conditions: human liver microsomes 0.5 mg/mL, 1 uM, NADPH, 37° C.
Method: as §2, §3

| SMILES | SIF (3 hours), percent of pro-drug metabolized to riluzole [1] | SGF (3 hours), percent of pro-drug metabolized to riluzole [2] | Metabolic Stability mouse (30 minutes), percent of pro-drug metabolized to riluzole [3] | Plasma Stability Human (1 hour), percent of pro-drug metabolized to riluzole [4] | Plasma Stability mouse (1 hour), percent of pro-drug metabolized to riluzole [5] | Metabolic Stability human (30 minutes), percent of pro-drug metabolized to riluzole [6] |
| --- | --- | --- | --- | --- | --- | --- |
| NCC1(CC(=O)Nc2nc3ccc(OC(F)(F)F)cc3s2)CCCCC1 [Cpd 29, 2-(1-Aminomethyl-cyclohexyl)-N-(6-trifluoromethoxy-benzothiazol-2-yl)-acetamide] | 50% | 0% |  |  |  |  |
| COC(=O)Nc1nc2ccc(OC(F)(F)F)cc2s1 [Cpd 12, (6-Trifluoromethoxy-benzothiazol-2-yl)-carbamic acid methyl ester] | 0% | 0% | 10% | 15% | 0% | 0% |
| CCCCOC(=O)Nc1nc2ccc(OC(F)(F)F)cc2s1 [Cpd 15, (6-Trifluoromethoxy-benzothiazol-2-yl)-carbamic acid butyl ester] | 0% | 0% | 53% | 0% | 9% | 13% |
| N[C@H](Cc1ccccc1)C(=O)Nc1nc2ccc(OC(F)(F)F)cc2s1 [Cpd 4, (R)-2-Amino-3-phenyl-N-(6-trifluoromethoxy-benzothiazol-2-yl)-propionamide] | 0% | 3% | 12% | 6% | 47% | 18% |
| CC(C)(C)OC(=O)CCC(=O)Nc1nc2ccc(OC(F)(F)F)cc2s1 [Cpd 22, N-(6-Trifluoromethoxy-benzothiazol-2-yl)-succinamic acid tert-butyl ester] | 0% | 0% | 0% | 0% | 0% | 21% |
| CCOC(=O)Nc1nc2ccc(OC(F)(F)F)cc2s1 [Cpd 13, (6-Trifluoromethoxy-benzothiazol-2-yl)-carbamic acid ethyl ester] | 0% | 0% | 8% | 0% | 0% | 7% |
| CC(C)[C@H](N)C(=O)Nc1nc2ccc(OC(F)(F)F)cc2s1 [Cpd 11, (S)-2-Amino-3-methyl-N-(6-trifluoromethoxy-benzothiazol-2-yl)-butyramide] | 40% | 0% | 40% | 11% | 45% | 6% |
| Nc1ccc(C(=O)Nc2nc3ccc(OC(F)(F)F)cc3s2)cc1 [Cpd 28, 4-Amino-N-(6-trifluoromethoxy-benzothiazol-2-yl)-benzamide] | 0% | 0% | 24% | 0% | 0% | 80% |
| C[C@@H](N)C(=O)Nc1nc2ccc(OC(F)(F)F)cc2s1 [Cpd 2, (R)-2-Amino-N-(6-trifluoromethoxy-benzothiazol-2-yl)-propionamide] | 50% | 0% | 10% | 15% | 36% | 4% |
| CCCCCCOC(=O)Nc1nc2ccc(OC(F)(F)F)cc2s1 [Cpd 17, (6-Trifluoromethoxy-benzothiazol-2-yl)-carbamic acid hexyl ester] |  | 0% |  |  |  |  |
| O=C(CCC(=O)Nc1nc2ccc(OC(F)(F)F)cc2s1)NCCN1CCOCC1 [Cpd 24, N-(2-Morpholin-4-yl-ethyl)-N′-(6-trifluoromethoxy-benzothiazol-2-yl)-succinamide] | 60% | 0% |  |  |  |  |
| N[C@H](COCc1ccccc1)C(=O)Nc1nc2ccc(OC(F)(F)F)cc2s1 [Cpd 5, (R)-2-Amino-3-benzyloxy-N-(6-trifluoromethoxy-benzothiazol-2-yl)-propionamide] |  |  | 24% | 3% | 25% | 0% |
| NCC(=O)Nc1nc2ccc(OC(F)(F)F)cc2s1 [Cpd 1, 2-Amino-N-(6-trifluoromethoxy-benzothiazol-2-yl)-acetamide] |  |  | 4% | 3% | 11% | 7% |
| N[C@@H](Cc1ccccc1)C(=O)Nc1nc2ccc(OC(F)(F)F)cc2s1 [Cpd 9, (S)-2-Amino-3-phenyl-N-(6-trifluoromethoxy-benzothiazol-2-yl)-propionamide] |  |  | 2% | 7% | 0% | 0% |
